Results reported in patent US7531482B2, “Thieno-pyrimidine compounds having fungicidal activity” (Dow AgroSciences LLC, priority 2005, dated 2009).

Columns and labels:
Type in all cases: in vivo
[1] = test system: Puccinia recondita tritici; assay: Leaf Rust of Wheat (PUCCRT) whole-plant disease control test; conditions: Puccinia recondita, foliar; for pest or weed control at 8.3 ppm: 8.3 ppm (footnote c), wheat foliage; for pest or weed control at 200 ppm: 200 ppm applied to foliage of wheat, inoculated one day after treatment, read-out: PUCCRT disease control
[2] = test system: Mycosphaerella graminicola=Septoria tritici; assay: Speckled Leaf Blotch of Wheat (SEPTTR) whole-plant disease control test; conditions: Mycosphaerella, foliar, 75 ppm applied to foliage of wheat; read-out: SEPTTR disease control
Leptosphaeria nodorum = assay: Glume Blotch of Wheat (LEPTNO) whole-plant disease control test; conditions: Parastagonospora nodorum, foliar; 75 ppm (footnote b), wheat foliage
[3] = test system: Magnaporthe grisea=Pyricularia oryzae; assay: whole plant or invertebrate; conditions: Pyricularia oryzae, foliar; for pest or weed control at 8.3 ppm: read-out: PYRIOR disease control, 8.3 ppm (footnote c), rice foliage; for pest or weed control at 200 ppm: read-out: PYRIOR disease control, 200 ppm applied to foliage of rice, inoculated one day after treatment
Colletotricum lagenarium = assay: Cucumber Anthracnose (COLLLA) whole-plant disease control test; conditions: Cucumis sativus, foliar; 200 ppm applied to foliage of cucumber; inoculated one day after treatment; read-out: COLLLA disease control
Phytophthora infestans = assay: whole plant or invertebrate; conditions: Phytophthora infestans, in Solanum lycopersicum, foliar, read-out: PHYTIN disease control, 200 ppm applied to foliage of tomato; inoculated one day after treatment
Erysiphe cichoracaerum = assay: Cucumber Powdery Mildew (ERYSCI) whole-plant disease control test; conditions: Erysiphe, foliar; 200 ppm applied to foliage of cucumber; inoculated one day after treatment; read-out: ERYSCI disease control

Row | SMILES | pest or weed control at 8.3 ppm [1] [%] | pest or weed control at 75 ppm [2] [%] | pest or weed control at 75 ppm (Leptosphaeria nodorum) [%] | pest or weed control at 8.3 ppm [3] [%] | pest or weed control at 200 ppm [1] [%] | pest or weed control at 200 ppm [3] [%] | pest or weed control at 200 ppm (Colletotricum lagenarium) [%] | pest or weed control at 200 ppm (Phytophthora infestans) [%] | pest or weed control at 200 ppm (Erysiphe cichoracaerum) [%]
1 | CC(C)(C)c1nnc(Oc2ccc(CCNc3ncnc4scc(Cl)c34)cc2)s1 [Compound 109] | 80 to 100 | 50 to 79 | 50 to 79 | 80 to 100 | – | – | – | – | –
2 | FC(F)(F)COc1cccc(Oc2ccc(CCNc3ncnc4scc(Cl)c34)cc2)n1 [Compound 111] | 50 to 79 | 50 to 79 | 0 to 49 | 80 to 100 | – | – | – | – | –
3 | COc1cnc(C(F)(F)F)c(F)c1Oc1ccc(CCNc2ncnc3scc(Cl)c23)cc1 [Compound 113] | 80 to 100 | 0 to 49 | 0 to 49 | 80 to 100 | – | – | – | – | –
4 | Clc1csc2ncnc(NCCc3ccc(Oc4snnc4-c4ccccc4)cc3)c12 [Compound 115] | 80 to 100 | 50 to 79 | 50 to 79 | 50 to 79 | – | – | – | – | –
5 | COc1ccc([N+](=O)[O-])c(Oc2ccc(CCNc3ncnc4scc(Cl)c34)cc2)n1 [Compound 116] | 80 to 100 | 0 to 49 | 0 to 49 | 0 to 49 | – | – | – | – | –
6 | CC(C)Cc1nnc(Oc2ccc(CCNc3ncnc4scc(Cl)c34)cc2)s1 [Compound 117] | 80 to 100 | 0 to 49 | 0 to 49 | 80 to 100 | – | – | – | – | –
7 | Clc1csc2ncnc(NCCc3ccc(Oc4nnc(-c5ccncc5)s4)cc3)c12 [Compound 118] | 80 to 100 | 0 to 49 | 0 to 49 | 80 to 100 | – | – | – | – | –
8 | Clc1csc2ncnc(NCCc3ccc(Oc4nnc(COc5ccccc5)s4)cc3)c12 [Compound 119] | 80 to 100 | 0 to 49 | 0 to 49 | 80 to 100 | – | – | – | – | –
9 | O=Cc1sc(Oc2ccc(CCNc3ncnc4scc(Cl)c34)cc2)nc1Cl [Compound 121] | 80 to 100 | 0 to 49 | 0 to 49 | 80 to 100 | – | – | – | – | –
10 | FC(F)(F)c1cnccc1Oc1ccc(CCNc2ncnc3scc(Cl)c23)cc1 [Compound 126] | 80 to 100 | 80 to 100 | 50 to 79 | – | – | – | – | – | –
11 | FC(F)(F)COc1ccnc(Oc2ccc(CCNc3ncnc4scc(Cl)c34)cc2)c1 [Compound 127] | 80 to 100 | 50 to 79 | 80 to 100 | – | – | – | – | – | –
12 | Nc1c(F)c(F)nc(Oc2ccc(CCNc3ncnc4scc(Cl)c34)cc2)c1F [Compound 128] | 80 to 100 | – | – | 80 to 100 | – | – | – | – | –
13 | Fc1cc(F)c(Oc2ccc(CCNc3ncnc4scc(Cl)c34)cc2)nc1F [Compound 129] | – | 80 to 100 | 50 to 79 | – | 80 to 100 | 80 to 100 | – | – | –
14 | N#Cc1c(Cl)cncc1Oc1cccc(CCNc2ncnc3scc(Cl)c23)c1 [Compound 130] | – | 0 to 49 | – | – | 80 to 100 | 80 to 100 | 0 to 49 | 80 to 100 | 0 to 49
15 | Fc1cnc(C(F)(F)F)c(F)c1Oc1cccc(CCNc2ncnc3scc(Cl)c23)c1 [Compound 131] | 50 to 79 | – | – | – | – | – | – | – | –
16 | Fc1ccc(F)c(Oc2ccc(CCNc3ncnc4scc(Cl)c34)cc2)n1 [Compound 132] | 80 to 100 | – | – | 80 to 100 | – | – | – | – | –
17 | N#Cc1ccc(C(F)(F)F)nc1Oc1ccc(CCNc2ncnc3scc(Cl)c23)cc1 [Compound 133] | 0 to 49 | – | – | – | – | – | – | – | –
